From patent US12295396B2, “Antagonists of T2R54 and compositions and uses thereof” (Firmenich Incorporated, priority 2018, dated 2025)
pIC50: −log10 of the molar value. Like-named read-outs stand apart in the source and are kept apart here.

Molecular target: T1, hT2R54 (Homo sapiens, UniProt P59534)
T1 construct: expressed in transfected cells; it overexpresses a promiscuous G protein
T1 sequence (P59534 1-338): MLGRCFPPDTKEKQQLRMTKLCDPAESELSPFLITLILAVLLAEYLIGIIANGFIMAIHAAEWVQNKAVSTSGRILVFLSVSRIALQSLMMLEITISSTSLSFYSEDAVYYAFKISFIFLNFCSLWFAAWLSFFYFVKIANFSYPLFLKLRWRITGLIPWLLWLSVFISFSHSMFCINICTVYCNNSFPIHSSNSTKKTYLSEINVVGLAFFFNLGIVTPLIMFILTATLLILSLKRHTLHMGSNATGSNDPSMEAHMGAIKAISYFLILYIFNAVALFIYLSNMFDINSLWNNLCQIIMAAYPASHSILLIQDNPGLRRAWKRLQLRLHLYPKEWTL
Experiment: Cell-based assay for measuring hT2R54 inhibition (FLIPR calcium, Fluo4AM, acetaminophen as bitter agonist)
Settings: cells stably expressing hT2R54 and a promiscuous G protein, read-out: hT2R54 IC50
How it was run: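 The readout was FLIPR calcium (Fluo4AM, 10 s baseline, 3 min post-addition) in cells stably carrying hT2R54 plus a promiscuous G protein, with host cells lacking hT2R54 as counter-control. Acetaminophen concentration series were tested with and without set test-compound levels. Half-maximal block of the agonist response gave the EC50/IC50.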

Compound	pIC50 (Table 2)	pIC50 (Table 4)	also measured
COc1cc2c(cc1NC(=O)CN1CCN(C(=O)c3cn(C)nc3C)CC1)OCO2 [compound 363]	6.22	–	–
COc1cc2c(cc1NC(=O)CN1CCN(C(C)=O)CC1)OCO2 [compound 364]	5.81	–	–
COc1cc2c(cc1NC(=O)CN1CCN(C(=O)CN3CCOCC3)CC1)OCO2 [compound 365]	5.58	–	–
COc1cc2c(cc1NC(=O)CN1CCN(C(=O)c3cccc(F)c3)CC1)OCO2 [compound 367]	6.22	–	–
COc1ccc(C(=O)N2CCN(CC(=O)Nc3cc4c(cc3OC)OCO4)CC2)cc1 [compound 368]	6.22	–	–
COc1cccc(C(=O)N2CCN(CC(=O)Nc3cc4c(cc3OC)OCO4)CC2)c1 [compound 369]	6.52	–	–
COc1cc2c(cc1NC(=O)CN1CCN(C(=O)Cc3ccccc3)CC1)OCO2 [compound 370]	6.40	–	–
COc1cc2c(cc1NC(=O)CN1CCN(C(=O)Cc3ccc(F)cc3)CC1)OCO2 [compound 371]	6.05	–	–
COc1cc2c(cc1NC(=O)CN1CCN(C(=O)Cc3cccc(O)c3)CC1)OCO2 [compound 372]	6.40	–	–
COc1cc2c(cc1NC(=O)CN1CCN(C(=O)Cc3ccc(O)cc3)CC1)OCO2 [compound 373]	6.15	–	–
COc1cccc(CC(=O)N2CCN(CC(=O)Nc3cc4c(cc3OC)OCO4)CC2)c1 [compound 374]	6.52	–	–
COc1ccc(CC(=O)N2CCN(CC(=O)Nc3cc4c(cc3OC)OCO4)CC2)cc1 [compound 375]	6.00	–	–
COc1cc2c(cc1NC(=O)CN1CCN(C(=O)Cc3ccccc3F)CC1)OCO2 [compound 376]	6.70	–	–
COc1cc2c(cc1NC(=O)CN1CCN(C(=O)Cc3cccc(F)c3)CC1)OCO2 [compound 377]	6.70	–	–
COc1cc2c(cc1NC(=O)CN1CCN(C(=O)Cc3ccncc3)CC1)OCO2 [compound 378]	5.96	–	–
COc1cc2c(cc1NC(=O)CN1CCN(C(=O)c3ccccc3)CC1)OCO2 [compound 379]	6.40	–	–
COc1cc2c(cc1NC(=O)CN1CCN(C(=O)c3ccc(O)cc3)CC1)OCO2 [compound 380]	6.10	–	–
COc1cc2c(cc1NC(=O)CN1CCN(C(=O)c3ccc(O)c(O)c3)CC1)OCO2 [compound 381]	5.30	–	–

Compound	pIC50 (Table 2)	pIC50 (Table 4)	also measured
COc1cc2c(cc1NC(=O)CN1CCN(C(=O)c3cccc(C#N)c3)CC1)OCO2 [compound 382]	6.40	–	–
COc1cc2c(cc1NC(=O)CN1CCN(C(=O)c3cccc(CO)c3)CC1)OCO2 [compound 383]	6.22	–	–
COc1cc2c(cc1NC(=O)CN1CCN(C(=O)c3cc(C)oc3C)CC1)OCO2 [compound 384]	6.70	–	–
COc1cc2c(cc1NC(=O)CN1CCN(C(=O)c3cc[nH]n3)CC1)OCO2 [compound 385]	6.15	–	–
COc1cc2c(cc1NC(=O)CN1CCN(C(=O)c3ccoc3)CC1)OCO2 [compound 386]	6.70	–	–
COc1cc2c(cc1NC(=O)CN1CCN(C(=O)c3cnon3)CC1)OCO2 [compound 387]	< 5.00	–	–
COc1cc2c(cc1NC(=O)CN1CCN(C(=O)c3ncn[nH]3)CC1)OCO2 [compound 388]	5.59	–	–
COc1cc2c(cc1NC(=O)CN1CCN(C(=O)c3cc(C)on3)CC1)OCO2 [compound 389]	6.40	–	–
COc1cc2c(cc1NC(=O)CN1CCN(C(=O)c3n[nH]cc3C)CC1)OCO2 [compound 390]	5.57	–	–
COc1cc2c(cc1NC(=O)CN1CCN(C(=O)c3nc(C)c[nH]3)CC1)OCO2 [compound 391]	6.70	–	–
COc1cc2c(cc1NC(=O)CN1CCN(C(=O)c3c[nH]c(C)n3)CC1)OCO2 [compound 392]	5.89	–	–
COc1cc2c(cc1NC(=O)CN1CCN(C(=O)c3ncc[nH]3)CC1)OCO2 [compound 393]	6.70	–	–
COc1cc2c(cc1NC(=O)CN1CCN(C(=O)c3cc(C)c(C)o3)CC1)OCO2 [compound 395]	7.00	–	–
COCc1ccc(C(=O)N2CCN(CC(=O)Nc3cc4c(cc3OC)OCO4)CC2)o1 [compound 396]	7.00	–	–
COc1cc2c(cc1NC(=O)CN1CCN(C(=O)Cc3ccoc3)CC1)OCO2 [compound 401]	6.89	–	–
CC(=O)c1cc2c(cc1NC(=O)CN1CCN(CC3CCCO3)CC1)OCO2 (stereo not shown) [compound 415]	–	–	pIC50 (Table 3): 5.89
COc1cc2c(cc1NC(=O)CN1CCN(CC3CCCO3)CC1)OCO2 (stereo not shown) [compound 416]	–	–	pIC50 (Table 3): 5.40

Now from value to compound, other results behind:

pIC50 (Table 2)	pIC50 (Table 4)	Compound	also measured
6.11	–	COCc1cc(C(=O)N2CCN(CC(=O)Nc3cc4c(cc3OC)OCO4)CC2)no1 [compound 397]	–
6.20	–	COc1cc2c(cc1NC(=O)CN1CCN(C(=O)c3ccc(CO)o3)CC1)OCO2 [compound 398]	–
5.85	–	COc1cc2c(cc1NC(=O)CN1CCN(C(=O)c3ncn[nH]3)CC1)OCO2 [compound 399]	–
6.52	–	COCc1cc(C(=O)N2CCN(CC(=O)Nc3cc4c(cc3OC)OCO4)CC2)no1 [compound 400]	–
5.96	–	COc1cc2c(cc1NC(=O)CN1CCN(C(=O)[C@H]3CCC(=O)O3)CC1)OCO2 [compound 402]	–
5.85	–	COc1cc2c(cc1NC(=O)C(C)N1CCN(C(C)=O)CC1)OCO2 (stereo not shown) [compound 403]	–
6.52	–	COc1cc2c(cc1NC(=O)CN1CCN(C(=O)C3CCCC3)CC1)OCO2 [compound 404]	–
6.00	–	COc1cc2c(cc1NC(=O)CN1CCN(C(=O)C3CCCCC3C)CC1)OCO2 (stereo not shown) [compound 405]	–
5.74	–	COc1cc2c(cc1NC(=O)CN1CCN(C(=O)C3CCOC3)CC1)OCO2 (stereo not shown) [compound 406]	–
< 5.00	–	COc1cc2c(cc1NC(=O)CN1CCN(C(=O)C3CCN(C)C3)CC1)OCO2 (stereo not shown) [compound 407]	–
6.06	–	COc1cc2c(cc1NC(=O)CN1CCN(C(=O)CC3CCCO3)CC1)OCO2 (stereo not shown) [compound 408]	–
6.30	–	COc1cc2c(cc1NC(=O)CN1CCN(C(=O)CC3CCCCO3)CC1)OCO2 (stereo not shown) [compound 409]	–
5.94	–	COc1cc2c(cc1NC(=O)CN1CCN(C(C)=O)CC1)CCC2 [compound 410]	–
6.77	–	CC(=O)c1cc2c(cc1NC(=O)C(C)N1CCN(C(=O)[C@@H]3CCCO3)CC1)OCCO2 (stereo partly shown) [compound 411]	–
6.77	–	CC(=O)c1cc2c(cc1NC(=O)C(C)N1CCN(C(=O)[C@H]3CCCO3)CC1)OCCO2 (stereo partly shown) [compound 412]	–
6.72	–	COCc1ccc(C(=O)N2CCN(C(C)C(=O)Nc3cc4c(cc3C(C)=O)OCCO4)CC2)cc1 (stereo not shown) [compound 413]	–
5.12	–	CCc1cc2c(cc1NC(=O)CN1CCN(C(=O)C3CCCO3)CC1)OCO2 (stereo not shown) [compound 414]	–
–	6.36	CC(=O)c1cc2c(cc1NC(=O)CN1CCCCC1)OCO2 [compound 417]	–
–	6.74	CC(=O)c1cc2c(cc1NC(=O)CN1CCC(C)CC1)OCO2 [compound 418]	–
–	6.87	CCOC(=O)[C@H]1CCCCN1CC(=O)Nc1cc2c(cc1C(C)=O)OCO2 [compound 419]	–
–	7.00	CCOC(=O)[C@H]1CCCN1CC(=O)Nc1cc2c(cc1C(C)=O)OCO2 [compound 420]	–
–	6.73	CC(=O)c1cc2c(cc1NC(=O)CN1CCC(=O)CC1)OCO2 [compound 421]	–

pIC50 (Table 2)	pIC50 (Table 4)	Compound	also measured
–	7.30	CC(=O)c1cc2c(cc1NC(=O)CN1CCSCC1)OCO2 [compound 422]	–
–	6.00	CC(=O)c1cc2c(cc1NC(=O)CN1CCOc3ccccc31)OCO2 [compound 423]	–
–	5.80	CC(=O)c1cc2c(cc1NC(=O)CN1CCC(O)C1)OCO2 (stereo not shown) [compound 424]	–
–	6.19	COCCCN(C)CC(=O)Nc1cc2c(cc1C(C)=O)OCO2 [compound 425]	–
–	5.94	COCCN(C)CC(=O)Nc1cc2c(cc1C(C)=O)OCO2 [compound 426]	–
–	6.43	CCN(CCCOC)CC(=O)Nc1cc2c(cc1C(C)=O)OCO2 [compound 427]	–
–	6.19	CCOC(=O)C1CN(C(=O)OC(C)(C)C)CCN1CC(=O)Nc1cc2c(cc1C(C)=O)OCO2 (stereo not shown) [compound 428]	–
–	5.89	CC(=O)c1cc2c(cc1NC(=O)CN1CCCC(NC(=O)OC(C)(C)C)C1)OCO2 (stereo not shown) [compound 429]	–
–	6.79	CC(=O)c1cc2c(cc1NC(=O)CN1CCC(NC(=O)OC(C)(C)C)CC1)OCO2 [compound 430]	–
–	6.05	CC(=O)c1cc2c(cc1NC(=O)C(C)N1CCN(C(=O)OC(C)(C)C)CC1)OCO2 (stereo not shown) [compound 431]	–
–	5.72	CC(=O)c1cc2c(cc1NC(=O)CCN1CCOCC1)OCO2 [compound 432]	–
–	6.66	CC(=O)c1cc2c(cc1NC(=O)C(C)N1CCC(O)CC1)OCCO2 (stereo not shown) [compound 433]	–
–	6.61	COC(=O)c1cc2c(cc1NC(=O)CN1CCC(O)CC1)OCO2 [compound 434]	–
–	6.38	COC(=O)c1cc2c(cc1NC(=O)CN1CCC(OC)CC1)OCO2 [compound 435]	–
–	6.54	COC(=O)c1cc2c(cc1NC(=O)CN1CCOCC1)OCO2 [compound 436]	–
–	~6.00	COC(=O)c1cc2c(cc1NC(=O)CN1CCN(C(=O)OC(C)(C)C)CC1)OCO2 [compound 437]	–
–	6.70	COC(=O)c1cc2c(cc1NC(=O)CN1CCOCC1)OCCO2 [compound 438]	–
–	~5.70	COC(=O)c1cc2c(cc1NC(=O)CN1CCOCC1)CCCC2 [compound 439]	–
–	5.74	COc1cc2c(cc1NC(=O)CN1CCCCC1)OCO2 [compound 440]	–
–	6.00	COc1cc2c(cc1NC(=O)C(C)N1CCOCC1)OCO2 (stereo not shown) [compound 441]	–
–	6.70	COc1cc2c(cc1NC(=O)CN1CCSCC1)OCO2 [compound 442]	–
–	6.49	COc1cc2c(cc1NC(=O)CN1CC(C)OC(C)C1)OCO2 (stereo not shown) [compound 443]	–
